# According to publication PMC9797896 (Medicinal Chemistry Research, 2022):
# Tested on: Vero E6 cells
# Assay: not given
# Details: African green monkey
row,SMILES,CC50
1,"Nc1ncnc2c1ncn2[C@@H]1O[C@H](CO)[C@@H](O)[C@@H]1O [Vidarabine, Arabinosyladenine]",> 100 µM
2,"OC[C@H]1O[C@@H](n2cnc3c(N[C@@H]4CCOC4)ncnc32)[C@H](O)[C@@H]1O [Tecadenoson, tecadenoson]",> 100 µM
3,"CC(C)=CCNc1ncnc2c1ncn2[C@@H]1O[C@H](CO)[C@@H](O)[C@H]1O [Riboprine, N^6-(2-Isopentenyl)adenosine]",> 100 µM
4,"CC(C)C(=O)OC[C@H]1O[C@@H](n2ccc(NO)nc2=O)[C@H](O)[C@@H]1O [Molnupiravir, molnupiravir]",> 100 µM
5,"O=c1[nH]cnc2c([C@@H]3N[C@H](CO)[C@@H](O)[C@H]3O)c[nH]c12 [Forodesine, forodesine]",> 100 µM
6,"COc1nc(N)nc2c1ncn2[C@@H]1O[C@H](CO)[C@@H](O)[C@@H]1O [Nelarabine, nelarabine]",> 100 µM
7,"CC(C)Nc1nc2cc(Cl)c(Cl)cc2n1[C@H]1O[C@@H](CO)[C@H](O)[C@@H]1O [Maribavir, maribavir]",> 100 µM

# Tested on: not listed separately
# Assay: in vitro
# Details: African green monkey
row,SMILES,CC50
1,"CCC(CC)COC(=O)[C@H](C)N[P@](=O)(OC[C@H]1O[C@@](C#N)(c2ccc3c(N)ncnn23)[C@H](O)[C@@H]1O)Oc1ccccc1 [Remdesivir, remdesivir]",> 100 µM
